Broadly, the IC50 is the point on the concentration scale where inhibition reaches its midpoint.

Among the data in patent US8691993B2, “Piperidinyl naphthylacetic acids” (Hoffman-La Roche Inc., priority 2011, dated 2014) are IC50 values, retold here.

human CRTH2 receptor, sequence (Q9Y5Y4 whole entry): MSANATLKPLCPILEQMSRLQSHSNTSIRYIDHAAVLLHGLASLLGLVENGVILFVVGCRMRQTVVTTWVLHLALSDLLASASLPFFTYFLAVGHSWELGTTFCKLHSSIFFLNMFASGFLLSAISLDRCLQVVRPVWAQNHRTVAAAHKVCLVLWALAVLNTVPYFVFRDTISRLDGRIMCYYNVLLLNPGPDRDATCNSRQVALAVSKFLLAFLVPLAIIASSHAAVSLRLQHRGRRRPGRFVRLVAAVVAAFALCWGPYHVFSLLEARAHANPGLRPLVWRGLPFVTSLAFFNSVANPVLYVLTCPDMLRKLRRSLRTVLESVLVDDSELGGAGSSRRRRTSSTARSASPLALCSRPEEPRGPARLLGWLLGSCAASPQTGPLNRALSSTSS

One experiment addresses human CRTH2 receptor (Homo sapiens (Human), UniProt Q9Y5Y4). Put plainly: Calcium Flux Assay Using Fluorometric Imaging Plate Reader (FLIPR). As to conditions: CHO-K1 cells transfected with G-alpha 16 and human CRTH2 receptor; DK-PGD2 ligand; 1 hour compound incubation. It is filed as cell-based. Here is the method: Calcium Flux Assay Using Fluorometric Imaging Plate Reader (FLIPR)
CHO-K1 cells previously transfected with G-alpha 16 were subsequently transfected with the human CRTH2 receptor and the neomycin resistance gene. Following selection in 800 μg/mL G418 (geneticin), individual clones were assayed for their receptor expression based on staining with an anti human CRTH2 IgG, followed by assaying for their response to 13,14-dihydro-15-keto Prostaglandin D2 (DK-PDG2) (ligand) in the Ca^2+ Flux assay. Positive clones were then cloned by limiting dilution cloning. The transfected cells were cultured in Ham's F-12 medium supplemented with 10% fetal bovine serum, 2 mM glutamine, 100 U/mL penicillin/100 μg/mL streptomycin, 200 μg/mL hygromycin B, and 800 μg/mL G418 (geneticin). Cells were harvested with trypsin-EDTA (trypsin-ethylenediaminetetraacetic acid) and counted using ViaCount® reagent (from Guava Technologies, Inc. which contains two DNA-binding dyes that enable the reagent user to distinguish between viable and non-viable cells). The cell suspension volume was adjusted to 2.5×10^5 cells/mL with complete growth media. Aliquots of 50 μL were dispensed into BD Falcon™ 384 well black/clear microplates (from BD Biosciences, a division of Becton, Dickinson and Company) and the microplates were placed in a 37° C. CO2 incubator overnight. The following day, the microplates were used in the assay.
Loading Buffer containing dye (from the FLIPR® Calcium 3 Assay Kit from Molecular Devices, a division of MDS Analytical Technologies and MDS Inc.) was prepared by dissolving the contents of one bottle into 200 mL Hank's Balanced Salt Solution containing 20 mM HEPES (4-(2-hydroxyethyl)-1-piperazineethanesulfonic acid) and 2.5 mM probenecid. Growth media was removed from the cell plates and 25 μL of Hank's Balanced Salt Solution (HBSS) containing 20 mM HEPES, 0.05% BSA and 2.5 mM probenecid was added to each well followed by 25 μL of diluted dye using a Multidrop dispenser. The plates were then incubated for 1 hour at 37° C.
During the incubation, test compound plates were prepared by adding 90 μL of HBSS/20 mM HEPES/0.005% BSA buffer to the 2 μL of serial diluted compounds. To prepare serial diluted compounds, 20 mM stocks of compounds were dissolved in 100% DMSO. The compound dilution plate was set up as follows: well #1 received 5 μL of compound plus 10 μL of DMSO. Wells 2-10 received 10 μL of DMSO. 5 μL was mixed and transferred from well #1 into well #2. 1:3 serial dilutions were continued out 10 steps. 2 μL of diluted compound was transferred into duplicate wells of a 384 well “assay plate” and then 90 μL of buffer was added.
After incubation, both the cell and “assay plate” plates were brought to the fluorometric imaging plate reader (FLIPR®) and 20 μL of the diluted compounds were transferred to the cell plates by the FLIPR®. Plates were then incubated for 1 hour at room temperature. After the 1 hour incubation, plates were returned to the FLIPR® and 20 μL of 4.5× concentrated ligand was added to the cell plates. During the assay, fluorescence readings were taken simultaneously from all 384 wells of the cell plate every 1.5 seconds. Five readings were taken to establish a stable baseline, then 20 μL of sample was rapidly (30 μL/sec) and simultaneously added to each well of the cell plate. The fluorescence was continuously monitored before, during and after sample addition for a total elapsed time of 100 seconds. Responses (increase in peak fluorescence) in each well following agonist addition were determined. The initial fluorescence reading from each well, prior to ligand stimulation, was used as a zero baseline value for the data from that well. The responses were expressed as % inhibition of the buffer control. […]
For the molecule `O=C(O)Cc1cc(C2CCN(S(=O)(=O)c3cccnc3)CC2)c2cc(F)ccc2c1` [Example 4, {6-Fluoro-4-[1-(pyridine-3-sulfonyl)-piperidin-4-yl]-naphthalen-2-yl}-acetic acid], the IC50 was found to be 1740 nM.

Regarding `O=C(O)Cc1cc(C2CCN(S(=O)(=O)c3ccc(Cl)cc3Cl)CC2)c2cc(F)ccc2c1` [Example 11, {4-[1-(2,4-Dichloro-benzenesulfonyl)-piperidin-4-yl]-6-fluoro-naphthalen-2-yl}-acetic acid], the IC50 came to 4.8 nM.

With `O=C(O)Cc1cc(C2CCN(S(=O)(=O)c3cc(Cl)cc(Cl)c3)CC2)c2cc(F)ccc2c1` [Example 12, {4-[1-(3,5-Dichloro-benzenesulfonyl)-piperidin-4-yl]-6-fluoro-naphthalen-2-yl}-acetic acid], the IC50 came to 404 nM.

On to `CS(=O)(=O)c1cccc(S(=O)(=O)N2CCC(c3cc(CC(=O)O)cc4ccc(F)cc34)CC2)c1` [Example 9, {6-Fluoro-4-[1-(3-methanesulfonyl-benzenesulfonyl)-piperidin-4-yl]-naphthalen-2-yl}-acetic acid], for which the IC50 is 1150 nM.

`Cc1ccc(S(=O)(=O)N2CCC(c3cc(CC(=O)O)cc4ccc(F)cc34)CC2)cc1` [Example 2, {6-Fluoro-4-[1-(toluene-4-sulfonyl)-piperidin-4-yl]-naphthalen-2-yl}-acetic acid]: the IC50 came to 53 nM.

Regarding `O=C(O)Cc1cc(C2CCN(S(=O)(=O)c3ccncc3)CC2)c2cc(F)ccc2c1` [Example 5, {6-Fluoro-4-[1-(pyridine-4-sulfonyl)-piperidin-4-yl]-naphthalen-2-yl}-acetic acid], the half-maximal inhibitory concentration (IC50) was 898 nM.

For `O=C(O)Cc1cc(C2CCN(S(=O)(=O)c3cc(C(F)(F)F)cc(C(F)(F)F)c3)CC2)c2cc(F)ccc2c1` [Example 13, {4-[1-(3,5-Bis-trifluoromethyl-benzenesulfonyl)-piperidin-4-yl]-6-fluoro-naphthalen-2-yl}-acetic acid], the IC50 amounted to 1350 nM.

Take `O=C(O)Cc1cc(C2CCN(S(=O)(=O)c3ccccn3)CC2)c2cc(F)ccc2c1` [Example 3, {6-Fluoro-4-[1-(pyridine-2-sulfonyl)-piperidin-4-yl]-naphthalen-2-yl}-acetic acid]: the IC50 amounted to 104 nM.

Take `O=C(O)Cc1cc(C2CCN(S(=O)(=O)c3ccccc3)CC2)c2cc(F)ccc2c1` [Example 1, [4-(1-Benzenesulfonyl-piperidin-4-yl)-6-fluoro-naphthalen-2-yl]-acetic acid]: the IC50 was determined as 18 nM.

For the molecule `O=C(O)Cc1cc(C2CCN(S(=O)(=O)c3cc(Cl)ccc3Cl)CC2)c2cc(F)ccc2c1` [Example 10, {4-[1-(2,5-Dichloro-benzenesulfonyl)-piperidin-4-yl]-6-fluoro-naphthalen-2-yl}-acetic acid], the IC50 came to 3.5 nM.

For the molecule `O=C(O)Cc1cc(C2CCN(S(=O)(=O)c3ccccc3Cl)CC2)c2cc(F)ccc2c1` [Example 6, {4-[1-(2-Chloro-benzenesulfonyl)-piperidin-4-yl]-6-fluoro-naphthalen-2-yl}-acetic acid], the IC50 was found to be 2.5 nM.

As for `O=C(O)Cc1cc(C2CCN(S(=O)(=O)c3cccc(Cl)c3)CC2)c2cc(F)ccc2c1` [Example 7, {4-[1-(3-Chloro-benzenesulfonyl)-piperidin-4-yl]-6-fluoro-naphthalen-2-yl}-acetic acid], the IC50 stood at 95 nM.

On to `O=C(O)Cc1cc(C2CCN(S(=O)(=O)c3ccc(Cl)cc3)CC2)c2cc(F)ccc2c1` [Example 8, {4-[1-(4-Chloro-benzenesulfonyl)-piperidin-4-yl]-6-fluoro-naphthalen-2-yl}-acetic acid], for which the IC50 worked out at 42 nM.

In the next experiment the test system is Th2 cells. Put plainly: DK-PGD2-Induced IL-13 Production Assay in Th2 Cells. The experiment is classed as cell-based. The following applies: inhibition of IL-13 production; human Th2 cells; 500 nM DK-PGD2; 4 hrs at 37° C.; ELISA. The procedure:
DK-PGD2-Induced IL-13 Production Assay in Th2 Cells
Inhibition of 13,14-dihydro-15-keto Prostaglandin D2 (DK-PGD2)-induced IL-13 production in T helper type 2 (Th2) cells was applied to evaluate compound cellular potency.
Cultures of Th2 cells were established from blood of healthy human volunteers according to the following procedure. Peripheral blood mononuclear cells (PBMC) were first isolated from 50 mL of fresh blood by Ficoll-Hypaque density gradient centrifugation, followed by CD4^+ cell purification using a CD4^+ T Cell Isolation Kit II (from Miltenyi Biotec Inc.). The CD4^+ T cells were then differentiated to Th2 cells by culturing the cells in X-VIVO 15® medium (from Cambrex BioScience Walkersville Inc.) containing 10% human AB serum (serum of blood type AB from Invitrogen Corporation), 50 U/mL of recombinant human interleukin-2 (rhIL-2) (from PeproTech Inc.) and 100 ng/mL of recombinant human interleukin-4 (rhIL-4) (from PeproTech Inc.) for 7 days. The Th2 cells were isolated using a CD294 (CRTH2) MicroBead Kit (from Miltenyi Biotec Inc.) and amplified in X-VIVO 15® medium containing 10% human AB serum and 50 U/mL of rhIL-2 for 2 to 5 weeks. In general, 70% to 80% of the Th2 cells used in the assay are CRTH2-positive when analyzed by fluorescence-activated cell sorting using the BM16 antibody (as previously described) conjugated to Alexa Fluor 647.
The spontaneous production of IL-13 by Th2 cells was determined in the absence of DK-PGD2 stimulation and the value was subtracted from that in the presence of each compound for percent inhibition and IC50 calculations.
The percent inhibition of interleukin 13 (IL-13) production for a compound at various concentrations was calculated according to the following formula, [1-(IL-13 production in the presence of compound)/(IL-13 production in the presence of 0.15% DMSO)]×100. The IC50 value, defined as the concentration of a compound that is required for 50% inhibition of IL-13 production, was calculated by fitting the percent inhibition data for 7 concentrations to a sigmoidal dose-response (4 parameter logistic) model in the XLfit® software Excel add-in program [ID Business Solutions Ltd., model 205, where F(x)=(A+(B−A)/(1+((C/x)^D)))].
In general terms: In an ELISA, binding on a coated surface is turned into a signal by an enzyme label.
As to `Cc1c(CC(=O)O)cc2ccc(F)cc2c1C1CCN(S(C)(=O)=O)CC1` [Example 15, [6-Fluoro-4-(1-methanesulfonyl-piperidin-4-yl)-3-methyl-naphthalen-2-yl]-acetic acid], the IC50 was 142 nM.

`Cc1c(CC(=O)O)cc2ccc(F)cc2c1C1CCN(S(=O)(=O)c2cc(Cl)ccc2Cl)CC1` [Example 17, {4-[1-(2,5-Dichloro-benzenesulfonyl)-piperidin-4-yl]-6-fluoro-3-methyl-naphthalen-2-yl}-acetic acid] showed a 50% inhibitory concentration (IC50) of 120 nM.

The molecule `Cc1c(CC(=O)O)cc2ccc(F)cc2c1C1CCN(S(=O)(=O)Cc2ccccc2)CC1` [Example 19, [6-Fluoro-3-methyl-4-(1-phenylmethanesulfonyl-piperidin-4-yl)-naphthalen-2-yl]-acetic acid] registered an IC50 of 8 nM.

Turning to `COc1ccccc1NC(=O)N1CCC(c2c(C)c(CC(=O)O)cc3ccc(F)cc23)CC1` [Example 35, {6-Fluoro-4-[1-(2-methoxy-phenylcarbamoyl)-piperidin-4-yl]-3-methyl-naphthalen-2-yl}-acetic acid], the IC50 was found to be 241 nM.

Turning to `Cc1c(CC(=O)O)cc2ccc(F)cc2c1C1CCN(S(=O)(=O)C2CCCC2)CC1` [Example 24, [4-(1-Cyclopentanesulfonyl-piperidin-4-yl)-6-fluoro-3-methyl-naphthalen-2-yl]-acetic acid], the IC50 is 23 nM.

Molecule `Cc1c(CC(=O)O)cc2ccc(F)cc2c1C1CCN(S(=O)(=O)Cc2ccccc2[N+](=O)[O-])CC1` [Example 26, {6-Fluoro-3-methyl-4-[1-(2-nitro-phenylmethanesulfonyl)-piperidin-4-yl]-naphthalen-2-yl}-acetic acid] registered an IC50 of 32 nM.

The molecule `COc1ccccc1S(=O)(=O)N1CCC(c2c(C)c(CC(=O)O)cc3ccc(F)cc23)CC1` [Example 20, {6-Fluoro-4-[1-(2-methoxy-benzenesulfonyl)-piperidin-4-yl]-3-methyl-naphthalen-2-yl}-acetic acid] yielded an IC50 of 9 nM.

For `Cc1c(CC(=O)O)cc2ccc(F)cc2c1C1CCN(C(=O)Cc2ccccc2)CC1` [Example 31, [6-Fluoro-3-methyl-4-(1-phenylacetyl-piperidin-4-yl)-naphthalen-2-yl]-acetic acid], the IC50 came to 117 nM.
